Measurements reported in patent publication US5225411A, “Disubstituted polymethyleneimines” (priority 1990, dated 1993).

Experiments:
line P 388/ADR 10 = assay: Flow cytometry, increase in fluorescence of ADR on the line P 388/ADR 10; assay type: cell-based, murine; settings: ADR 50 μM, 5 h
Experimental: (§1) By measuring that fluorescence it is possible to obtain a relative measurement of the intracellular concentration of ADR.
(§2) […] After 5 hours' incubation, the intracellular uptake of adriamycin was evaluated by FCM.
(§3) The analysis of each of the samples was carried out on a total of 10,000 cells at a speed of 1000 cells/sec.
(§4) The results were presented in the form of linear histograms of the intracellular ADR fluorescence.
(§5) Expression of the Results
(§6) For each of the histograms, the channel mean fluorescence was determined by the apparatus information system. For all experiments:
(§7) A negative control (cells without ADR) fixed the autofluorescence threshold.
(§8) A positive control (cells with ADR) determined the MEAN value=MN1.
(§9) The "test" tubes (cells with ADR and with compound) were used to determine, for each of the compounds and at each of the concentrations, the MEAN values=MN2.
(§10) The results are expressed in the form of variations from the mean fluorescence obtained for each of the "test" tubes (MN2) in relation to the mean fluorescence obtained with the […] (MNl) : VAR-MEAN=MN2 -MN1. The parameter expressed is thus the increase in the fluorescence of adriamycin in the presence of the tested compounds.

[1] = tested on: Chinese Hamster Pulmonary Line DC-3F/AD; assay: Increase in the cytotoxicity of actinomycin D on the Chinese hamster pulmonary line DC-3F/AD; assay type: cell-based; settings: 4 days;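 note: DC-3F/AD is an extremely resistant cell line whose resistance factor exceeds 10,000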
Excerpt: The cytotoxic agent used was actinomycin D.
Line DC-3F/AD is an extremely resistant line. Its resistance factor is higher than 10,000.

line DC-3F/AD = assay: Flow cytometry, increase in fluorescence of ADR on the line DC-3F/AD; assay type: cell-based, Chinese Hamster; settings: ADR 50 μM, 5 h
Experimental: as §1, §2, §3, §4, §5, §6, §7, §8, §9, §10

[2] = tested on: murine leukaemia P 388/ADR 10; assay: Evaluation of the increase in cytotoxicity of adriamycin on the line P 388/ADR-10 in vitro (reversion factor); assay type: cell-based; settings: adriamycin, P 388/ADR-10, 48 h, TOX = toxic
Experimental: In this study, the cytotoxicity of adriamycin was measured in the absence and in the presence of the reversing compound.
The compounds tested for their capacity to reverse MDR are added at the same time as the cytotoxic agent. The cells are then incubated for 48 hours.

Row | SMILES | Increase in fluorescence of ADR (VAR-MEAN = MN2 - MN1) (line P 388/ADR 10; compound 2 μM) | Increase in fluorescence of ADR (VAR-MEAN = MN2 - MN1) (line P 388/ADR 10; compound 5 μM) | Increase in fluorescence of ADR (VAR-MEAN = MN2 - MN1) (line P 388/ADR 10; compound 10 μM) | Increase in fluorescence of ADR (VAR-MEAN = MN2 - MN1) (line P 388/ADR 10; compound 20 μM) | Reversion Factor (RF) ([1]; compound 5 μM) | Reversion Factor (RF) ([1]; compound 10 μM) | Reversion Factor (RF) ([1]; compound 20 μM) | Increase in fluorescence of ADR (VAR-MEAN = MN2 - MN1) (line DC-3F/AD; compound 2 μM) | Increase in fluorescence of ADR (VAR-MEAN = MN2 - MN1) (line DC-3F/AD; compound 5 μM) | Increase in fluorescence of ADR (VAR-MEAN = MN2 - MN1) (line DC-3F/AD; compound 10 μM) | Increase in fluorescence of ADR (VAR-MEAN = MN2 - MN1) (line DC-3F/AD; compound 20 μM) | Reversion Factor (RF) ([2]; compound 2.5 μM) | Reversion Factor (RF) ([2]; compound 5 μM) | Reversion Factor (RF) ([2]; compound 10 μM) | Reversion Factor (RF) ([1]; compound 2.5 μM)
1 | CCCCc1oc2ccccc2c1C(=O)c1cc(I)c(OCCN(CC)CC)c(I)c1 [AMIODARONE, reference compound] | 33.40 | 65.25 | 76.33 | 95.85 | 298 | 388 | TOX | 8.80 | 16.65 | 21.55 | 26.35 | 37.7 | 104.7 | TOX | –
2 | C=CCNc1nc(NCC=C)nc(NC2CCN(CC(c3ccccc3)c3ccccc3)CC2)n1 [Example 3, 4-[4,6-bis(allylamino)-2-s-triazinyl]amino-1-(2,2diphenylethyl)piperidine] | 29.9 | 46.2 | 66.0 | 73.1 | 104 | 240 | – | 8.0 | 19.9 | 21.6 | 19.3 | 39 | 70 | 134.8 | 38
3 | C=CCNc1nc(NCC=C)nc(N2CCC(NCC(c3ccccc3)c3ccccc3)CC2)n1 [Example 5, 1-[4,6-bis(allylamino)-2-s-triazinyl]-4-(2,2-diphenylethylamino)piperidine] | 45.25 | 60.7 | 79.47 | 76.25 | 658 | 1504 | TOX | 15.5 | 31.3 | 34.65 | 37.9 | 100 | 189 | 277.4 | –
4 | C=CCNc1nc(NCC=C)nc(N2CCC(NCCC(c3ccccc3)c3ccccc3)CC2)n1 [Example 6, 1-[4,6-bis(allylamino)-2-s-triazinyl]-4-(3,3-diphenylpropylamino)-piperidine] | 32.9 | 60.1 | 55.8 | TOX | 220 | TOX | TOX | 3.9 | 21.5 | 29.75 | TOX | 54.4 | TOX | TOX | < 16.5
5 | C=CCNc1nc(NCCC)nc(N2CCC(NCC(c3ccccc3)c3ccccc3)CC2)n1 [Example 7, 1-(4-propylamino-6-allylamino-2-s-triazinyl)-4-(2,2-diphenylethylamino)piperidine] | 48.75 | 72.6 | 80.9 | 87.3 | 992 | 2339 | – | 14.47 | 26.0 | 34.17 | 36.63 | 102.8 | 135.6 | TOX | –
6 | C=CCNc1nc(NCCC)nc(N2CCC(NCCC(c3ccccc3)c3ccccc3)CC2)n1 [Example 8, 1-(4-propylamino-6-allylamino-2-s-triazinyl)-4-(3,3diphenylpropylamino)piperidine] | 38.9 | 60.1 | TOX | TOX | TOX | TOX | TOX | 4.5 | 17.85 | 27.15 | TOX | 75.9 | TOX | TOX | 16.5
7 | C=CCNc1cc(N2CCC(NCCC(c3ccccc3)c3ccccc3)CC2)nc(NCC=C)n1 [Example 9, 1-(bis-2,4-allylamino-6-pyrimidinyl)-4-(3,3-diphenylpropylamino)piperidine] | 39.2 | 55.8 | 65.8 | TOX | 472 | TOX | – | 7.2 | 15.1 | 16.3 | 26.2 | 80.4 | TOX | TOX | 94
8 | C=CCNc1nc(NCC=C)nc(N2CCC(NCC(c3cc(OC)cc(OC)c3)c3ccccc3C)CC2)n1 (centres unmarked) [Example 10, 1-[4,6-bis(allylamino)-2-s-triazinyl]-4-[2-(3,5-dimethoxyphenyl)-2-(2-methylphenyl)ethylamino]piperidine] | 52.0 | 75.3 | 84.0 | 78.0 | 1347 | TOX | – | 14.8 | 24.7 | 26.5 | 28.2 | 125.1 | 75.3 | TOX | 259
9 | C=CCNc1nc(NCC=C)nc(N2CCC(NCCC(c3ccc(OC)c(OC)c3)c3ccc(OC)c(OC)c3)CC2)n1 [Example 12, 1-[4,6-bis(allylamino)-2-s-triazinyl]-4-[3,3-bis(3,4-dimethoxyphenyl)propylamino]piperidine] | – | – | – | – | < 16.5 | < 16.5 | – | 6.1 | 3.8 | 5.5 | 9.6 | 1.4 | 8 | TOX | –
